Blank lines part the entries; values can stand above or below the compound they belong to.
Assays:
[1] = Stability of nBTPT on urea blended with DAP, bagged storage at 20° C., HPLC analysis of nBTPT content; assay type: physicochemical; settings: 2500 ppm added; 900 ppm nBTPT as Agrotain Ultra on urea blended with DAP 1:1; 14 days bagged storage at 20° C.
Description: (§1) For lab scale experiments, nBTPT was applied onto urea by adding 1.2 kg of urea-based compound to a lab scale drum. In a next step, the nBTPT material was slowly added. A residence time of 10 minutes was applied and the rotating speed of the drum was consequently the same in each experiment. In case a moisture repellent coating was added, a nebulizer was used and depending on the order of addition, the moisture repellent coating was added before or after addition of the nBTPT material. Before use, the moisture repellent coating was preheated to 80° C. Larger scale experiments with amounts up to 40 kg of fertilizer material were performed in a concrete mixer.
(§2) In a next step, one or more reactive alkaline or alkaline-forming inorganic or organic compounds that is able to interact with the one or more components selected from the group of nitrates, phosphates, sulphates and chlorides was added;
(§3) In a next step, a particulate material, comprising one or more components selected from the group of nitrates, phosphates, sulphates and chlorides was added;
(§4) All the components were mixed thoroughly.
Optionally, a coating to one or more of the particulate components that is able to increase at least the anti-caking and/or water repellent properties of said urea-based blend composition was added. Importantly, all the steps can be interchanged or the steps can be performed simultaneously.
(§5) The samples were stored under several conditions, dependent on the type of samples: • 20° C. closed plastic container with head space (Climate chamber, 80% relative humidity) • Bagged at room temperature (20-25° C.) or in nissenhut (an unconditioned bulk hall) • Open to air in nissenhut • Cylinder test in nissenhut • Open pile in nissenhut
(§6) HPLC analysis of nBTPT is done as described in the procedure CEN 15688-2007.
(§7) In practice, the urea-based compound treated with nBTPT was picked and separated manually from the particulate material, comprising one or more components selected from the group of nitrates, phosphates, sulphates and chlorides, and then subsequently dissolved in water for HPLC analysis.
Coating: Moisture repellent (MR) coating was made according to EP 0768993 A1 (Norsk Hydro ASA) by mixing about 28 weight % of wax, about 68 weight % of oil and about 4 weight % of a resin, applied in an amount of about 0.1-0.5% weight % to the fertilizer. It will be referred herein as NH coating.

[2] = Stability of nBTPT in/on urea:AS blend, bagged versus open to air storage in nissenhut; assay type: physicochemical; settings: 500 ppm nBTPT in/on urea blended with granular AS 1:1; 35 days in nissenhut
Description: FIG. 8. Stability of different nBTPT formulations (500 ppm) in and on urea in a blend with granular AS: bagged versus open to air storage-% recovery of nBTPT after 35 days of storage in nissenhut (day/night cycle 16-42° C./27-77% relative humidity). • A=[500 ppm nBTPT powder in urea]+AS 1:1 • B=[500 ppm nBTPT powder on urea]+AS 1:1 • C=[500 ppm nBTPT as Agrotain® Ultra in urea]+AS 1:1 • D=[500 ppm nBTPT as Agrotain® Ultra on urea]+AS 1:1
as §5
(§8) Typically, a day/night cycle is generated in the nissenhut, with temperature fluctuations between 0 to 42° C. and fluctuations of relative humidity between 20 and 90%, which can be compared with real life storage in silos.
as §6, §7

[3] = Stability of nBTPT in/on urea blends, storage open to air in jars in nissenhut, HPLC analysis of nBTPT content; assay type: physicochemical; settings: for stability of nBTPT (degradation): 35 days open to air in jars in nissenhut; for effect of addition on the stability of nBTPT: 2650 ppm added, 14 days open to air in jars at nissenhut
Description: nBTPT was mixed in urea in the following way: nBTPT was added to urea melt and subsequently this mixture was granulated in a fluidized bed granulator.
as §1, §2, §3, §4, §5, §8, §6, §7

[4] = assay type: physicochemical
Excerpt: With regard to the activity of the reactive alkaline or alkaline-forming inorganic or organic compounds, without being bound by theory, it is hypothesised that the reactive alkaline or alkaline-forming inorganic or organic compound neutralises the released phosphoric acid which is formed during decomposition of the urease inhibitor of the type phosphoric triamide in view of the fact that the decomposition of the urease inhibitor of the type phosphoric triamide is acid-catalysed. As such, the decomposition of the urease inhibitor of the type phosphoric triamide is slowed down. Furthermore, the stabilizer has the ability to immobilize the nitrates, phosphates, sulphates and chlorides and/or to convert the nitrates, phosphates, sulphates and chlorides into a form which is less reactive with the urease inhibitor of the type phosphoric triamide. For example, calcium oxide may react with ammonium sulphate in the presence of water, which is always present in small amounts in urea, to form calcium sulphate, which is nearly insoluble in an aqueous environment, such as a soil.

Compound: O=C([O-])[O-].[Ca+2] [CaCO3, calcium carbonate]
- effect of addition on the stability of nBTPT [1]: beneficial effect

Compound: CCCCNP(N)(N)=S [nBTPT, N-(n-butyl) thiophosphoric triamide]
- effect of bagged storage versus open to air storage on stability of nBTPT [2]: beneficial effect of bagged storage
- stability of nBTPT (degradation) ([3]; liquid nBTPT formulations in and on urea (500 ppm) blended with granular AS 1:1, 16-42° C./27-77% relative humidity): degrades very fast
- stability of nBTPT (degradation) ([3]; nBTPT formulations in and on urea (500 ppm) blended with DAP and KCl, triple 19 ratio): degrades very dramatically
- stability of nBTPT (degradation) ([3]; solid nBTPT in and on urea (500 ppm) blended with DAP 1:1): degrades very fast
- stability of nBTPT (degradation) ([3]; solid nBTPT in and on urea (500 ppm) blended with KCl 1:1): degrades very fast

Compound: [O]=[Zn] [ZnO, zinc oxide]
- effect of addition on the stability of nBTPT [1]: beneficial effect

- effect of addition on the stability of nBTPT [1]: beneficial effect
Compound: CCN(CC)CC [triethylamine]

Compound: [O]=[Mg] [MgO, magnesium oxide]
- effect of addition on the stability of nBTPT [1]: beneficial effect

- stabilizing effect on nBTPT [4]: no stabilizing effect
Compound: talc

- effect of addition on the stability of nBTPT [1]: beneficial effect
Compound: OCCNCCO [diethanolamine]

Compound: [O]=[Ca] [CaO, calcium oxide]
- effect of addition on the stability of nBTPT [1]: beneficial effect
- effect of addition on the stability of nBTPT ([3]; 500 ppm nBTPT powder in or on urea blended with DAP and KCl triple 19): beneficial effect
- effect of addition on the stability of nBTPT ([3]; 500 ppm nBTPT powder in or on urea blended with granular AS 1:1): beneficial effect

From US11072567B2, “Urea-based blend composition and method for the manufacture thereof” (YARA INTERNATIONAL ASA, priority 2015, dated 2021)
